Assay results taken from patent US11124519B2, “Cocrystal forms of ((1S,2S,4R)-4-{4-[(1S)-2,3-dihydro-1H-inden-1-ylamino]-7H-pyrrolo [2,3-d]pyrimidin-7-yl}-2-hydroxycyclopentyl) methyl sulfamate, formulations and uses thereof” (Millennium Pharmaceuticals, Inc., priority 2017, dated 2021).
Entries after “also recorded” stand apart in the source; their conditions may differ. Structures can show the parent of a compound that is named as a salt. Where two headings read alike, the source gives them in different places. Marks after values point to notes of the source that are not given here.

How the values were obtained:
[1] = Aqueous solubility estimate in water by solvent addition method; settings: for Solubility Estimate: solvent addition method, visual assessment, rounded to nearest whole number
[2] = Physical stability on exposure to elevated relative humidity (deliquescence); type: physicochemical; settings: RT
Text: Each cocrystal was also exposed to elevated relative humidity (first ˜75% RH, then ˜97% RH) for specified time periods (Table 20).

[3] = Chemical stability under temperature/humidity stress, HPLC purity at t=0 and t=14 days; settings: for Purity after 60° C./75% RH, 2 weeks / Purity after 60° C./ambient RH, 2 weeks: HPLC; for Chemical stability under the stressed conditions (in words): 60° C./ambient RH and 60° C./75% RH; for Purity after 60° C./75% RH, 2 weeks / Chemical stability under the stressed conditions (in words) / Purity after 60° C./ambient RH, 2 weeks: 2 weeks; for Purity T = 0: unstressed, t=0, HPLC
Description: (§1) High Performance Liquid Chromatography (HPLC): HPLC analyses were performed using an Agilent 1100 series liquid chromatograph equipped with a variable wavelength detector and binary pump for sequence file 552094, and a diode array detector and quaternary pump for the remaining sequences. […] Degasser and an autosampler (set to ˜5° C.) were equipped for all sequences. The chromatographic column was a 150×4.6 mm Aquasil C18 column with 3 μm packing (Thermo Scientific). The column temperature was set to 40° C., and the detector wavelength was 280 nm with a bandwidth of 8 nm. The injection volume was 15 μL. Mobile phase A was 0.1% TFA in Water, and mobile phase B was 0.1% TFA in Acetonitrile. The flow rate used was 0.5 L/minute. Mobile phases were filtered and degassed through a 0.45 μm nylon filter under vacuum prior to use, except for Mobile phase A used in sequence file 554410 due to time constraints.
(§2) The physical and chemical stability of the glycolic acid, hippuric acid, malonic acid, and saccharin cocrystals were evaluated at two stress conditions (60° C./ambient relative humidity and 60° C./75% relative humidity) and compared to MLN4924 HCl salt.
(§3) Chemical stability was assessed via HPLC analysis of samples at t=0 and t=14 days.

[4] = 2 weeks
Description: as §1, §2, §3

physchem = settings: water, thermodynamic from solid
[5] = cited from earlier work
[6] = Physical stability under temperature/humidity stress, XRPD comparison of unstressed and stressed samples; type: physicochemical; settings: 60° C./75% RH, 2 weeks; listed as MLN4924-HCl
Description: Physical stability was assessed by comparison of XRPD patterns of the unstressed and stressed samples.

[7] = listed as Glycolic acid (Form A)
[8] = listed as Hippuric acid (Form B)
[9] = listed as Malonic acid (Form M)

## NS(=O)(=O)OC[C@@H]1C[C@@H](n2ccc3c(N[C@H]4CCc5ccccc54)ncnc32)C[C@@H]1O [Form A, ((1S,2S,4R)-4-{4-[(1S)-2,3-dihydro-1H-inden-1-ylamino]-7H-pyrrolo[2,3-d]pyrimidin-7-yl}-2-hydroxycyclopentyl)methyl sulfamate]
[1]
  Solubility Estimate: <1^c mg/mL
[2]; ~75% RH stress, ~3 days
  Observations After Stress: Free flowing solids
[2]; ~97% RH stress, ~2 days
  Observations After Stress: Free flowing solids
[3]; [7]
  Purity after 60° C./75% RH, 2 weeks: 93.0%
  Purity after 60° C./ambient RH, 2 weeks: 95.9%
  Purity T = 0: 96.9%
[3]; listed as glycolic acid cocrystal
  Chemical stability under the stressed conditions (in words): limited stability

## NS(=O)(=O)OC[C@@H]1C[C@@H](n2ccc3c(N[C@H]4CCc5ccccc54)ncnc32)C[C@@H]1O [Form B, ((1S,2S,4R)-4-{4-[(1S)-2,3-dihydro-1H-inden-1-ylamino]-7H-pyrrolo[2,3-d]pyrimidin-7-yl}-2-hydroxycyclopentyl)methyl sulfamate]
[1]
  Solubility Estimate: <1 mg/mL
[2]; ~75% RH stress, ~3 days
  Observations After Stress: Free flowing solids
[2]; ~97% RH stress, ~2 days
  Observations After Stress: Free flowing solids
[3]; [8]
  Purity after 60° C./75% RH, 2 weeks: 93.9%
  Purity after 60° C./ambient RH, 2 weeks: 94.1%
  Purity T = 0: 94.4%
[3]; listed as hippuric acid cocrystal
  Chemical stability under the stressed conditions (in words): little decomposition; also recorded: improvement in stability over the current MLN4924 HCl form

## NS(=O)(=O)OC[C@@H]1C[C@@H](n2ccc3c(N[C@H]4CCc5ccccc54)ncnc32)C[C@@H]1O [Form F, ((1S,2S,4R)-4-{4-[(1S)-2,3-dihydro-1H-inden-1-ylamino]-7H-pyrrolo[2,3-d]pyrimidin-7-yl}-2-hydroxycyclopentyl)methyl sulfamate]
[4]
  Chemical stability under the stressed conditions (in words): improvement in stability over the current MLN4924 HCl form
[2]; ~75% RH stress, ~3 days
  Observations After Stress: Free flowing solids
[2]; ~97% RH stress, ~2 days
  Observations After Stress: Free flowing solids
[3]; listed as Saccharin (Form F)
  Purity after 60° C./75% RH, 2 weeks: 91.0%
  Purity after 60° C./ambient RH, 2 weeks: 91.2%
  Purity T = 0: 91.2%
[3]; listed as saccharin cocrystal
  Purity T = 0: about 91%

## NS(=O)(=O)OC[C@@H]1C[C@@H](n2ccc3c(N[C@H]4CCc5ccccc54)ncnc32)C[C@@H]1O [Form G, ((1S,2S,4R)-4-{4-[(1S)-2,3-dihydro-1H-inden-1-ylamino]-7H-pyrrolo[2,3-d]pyrimidin-7-yl}-2-hydroxycyclopentyl)methyl sulfamate]
[2]; ~75% RH stress, ~3 days
  Observations After Stress: Free flowing solids
[2]; ~97% RH stress, ~2 days
  Observations After Stress: Slightly tacky solids
[2]; ~97% RH stress, ~2 days, listed as solvated piperazine cocrystal
  Observations After Stress: slightly tacky

## NS(=O)(=O)OC[C@@H]1C[C@@H](n2ccc3c(N[C@H]4CCc5ccccc54)ncnc32)C[C@@H]1O [Form H, ((1S,2S,4R)-4-{4-[(1S)-2,3-dihydro-1H-inden-1-ylamino]-7H-pyrrolo[2,3-d]pyrimidin-7-yl}-2-hydroxycyclopentyl)methyl sulfamate]
[2]; ~75% RH stress, ~3 days
  Observations After Stress: Free flowing solids
[2]; ~97% RH stress, ~2 days
  Observations After Stress: Free flowing solids
physchem
  solubility: < 1000 µg/mL

## NS(=O)(=O)OC[C@@H]1C[C@@H](n2ccc3c(N[C@H]4CCc5ccccc54)ncnc32)C[C@@H]1O [Form J, ((1S,2S,4R)-4-{4-[(1S)-2,3-dihydro-1H-inden-1-ylamino]-7H-pyrrolo[2,3-d]pyrimidin-7-yl}-2-hydroxycyclopentyl)methyl sulfamate]
[2]; ~75% RH stress, ~3 days
  Observations After Stress: Free flowing solids
[2]; ~97% RH stress, ~2 days
  Observations After Stress: Free flowing solids

## NS(=O)(=O)OC[C@@H]1C[C@@H](n2ccc3c(N[C@H]4CCc5ccccc54)ncnc32)C[C@@H]1O [Form L, ((1S,2S,4R)-4-{4-[(1S)-2,3-dihydro-1H-inden-1-ylamino]-7H-pyrrolo[2,3-d]pyrimidin-7-yl}-2-hydroxycyclopentyl)methyl sulfamate]
[2]; ~75% RH stress, ~4 days
  Observations After Stress: Free flowing solids
[2]; ~97% RH stress, ~1 day
  Observations After Stress: Free flowing solids

## NS(=O)(=O)OC[C@@H]1C[C@@H](n2ccc3c(N[C@H]4CCc5ccccc54)ncnc32)C[C@@H]1O [Form M, ((1S,2S,4R)-4-{4-[(1S)-2,3-dihydro-1H-inden-1-ylamino]-7H-pyrrolo[2,3-d]pyrimidin-7-yl}-2-hydroxycyclopentyl)methyl sulfamate]
[1]; thermodynamic from solid
  solubility: < 1000 µg/mL
[2]; ~75% RH stress, ~4 days
  Observations After Stress: Free flowing solids
[2]; ~97% RH stress, ~1 day
  Observations After Stress: Free flowing solids
[3]; [9]
  Purity after 60° C./75% RH, 2 weeks: 99.0%
  Purity after 60° C./ambient RH, 2 weeks: 99.1%
  Purity T = 0: 99.0%
[3]; listed as malonic acid
  Chemical stability under the stressed conditions (in words): highest final purity
  Purity T = 0: highest initial purity
[3]; listed as malonic acid cocrystal
  Chemical stability under the stressed conditions (in words): little decomposition; also recorded: improvement in stability over the current MLN4924 HCl form

## NS(=O)(=O)OC[C@@H]1C[C@@H](n2ccc3c(N[C@H]4CCc5ccccc54)ncnc32)C[C@@H]1O [Form N, ((1S,2S,4R)-4-{4-[(1S)-2,3-dihydro-1H-inden-1-ylamino]-7H-pyrrolo[2,3-d]pyrimidin-7-yl}-2-hydroxycyclopentyl)methyl sulfamate]
[1]
  Solubility Estimate: <1^c mg/mL
[2]; ~75% RH stress, ~4 days
  Observations After Stress: Free flowing solids
[2]; ~97% RH stress, ~1 day
  Observations After Stress: Free flowing solids

## NS(=O)(=O)OC[C@@H]1C[C@@H](n2ccc3c(N[C@H]4CCc5ccccc54)ncnc32)C[C@@H]1O [HCl, ((1S,2S,4R)-4-{4-[(1S)-2,3-dihydro-1H-inden-1-ylamino]-7H-pyrrolo[2,3-d]pyrimidin-7-yl}-2-hydroxycyclopentyl)methyl sulfamate, reference compound]
[5]
  Chemical stability during accelerated stress condition: limited chemical stability
[6]
  Form change (XRPD): new unique crystalline XRPD pattern
[3]
  Purity after 60° C./75% RH, 2 weeks: 96.6%
  Purity after 60° C./ambient RH, 2 weeks: 94.6%
  Purity T = 0: 98.2%
[3]; listed as MLN4924-HCl
  Chemical stability under the stressed conditions (in words): limited stability
